Results from patent US20230365625A1, “METHODS FOR TREATING AND/OR PREVENTING UNDESIRABLE SEQULAE OF NASAL TURBINOPLASTY OR FUNCTIONAL ENDOSCOPIC SINUS SURGERY” (3-D Matrix, Ltd., priority 2022, published 2023).
“And” between values parts separate entries of the source, which are not always exact repeats. Equal values may be shown once.

Tested on: Functional Endoscopic Sinus Surgery (FESS) surgical wound
Format: in vivo, human
Text: Study design—This study was a retrospective chart review of 94 consecutive human patients who underwent FESS and who were operated on by a single surgeon in a single center in Perth, Western Australia. FIGS. 6A and 6B show a flowchart of patients based on extent of surgery and outcomes. Only patients treated with PuraSinus alone (no other hemostatic agent was used) were included in the analysis. Ethics approval was obtained from St John of Good Health Care Human Research Ethics Committee.
Patient population—The study included adult human patients who underwent FESS procedures and also included patients who underwent FESS in combination with nasal surgery (septoplasty and/or turbinoplasty). Both primary and revision cases were included. Patients were discharged the day after surgery with a recommendation to perform saline nasal irrigations no less than four times a day. Patient characteristics, indication for surgery, extent of surgical intervention, and bleeding and adhesion information was recorded.
Surgical categories—Procedures were performed according to the minimally invasive sinus technique (MIST), including combination of maxillary antrostomy, ethmoidectomies, sphenoidotomies and frontal sinus (Draf Ila, or Draf 111), turbinate reduction and/or septoplasty. FESS procedures were categorized into two groups: complete FESS (including all sinuses—maxillary antrostomy, ethmoidectomy, sphenoidotomy, and frontal sinusotomy) or limited FESS (anything less than complete FESS, usually involves antrostomy and ethmoidectomy). The surgical extent was dictated by the patient's condition and the surgeon's clinical judgement.
Material used—PuraSinus (licensed as PuraStat in Australia, 3D-Matrix)/RADA16-I (SEQ ID NO:1) 2.5% w/v in water is a transparent SAP solution supplied sterile in a pre-filled syringe (available in a 3 mL and 5 mL form) ready for use with a thin application nozzle suited for endoscopic catheter administration. The syringe is stored at between 2° C. and 8° C. At completion of the FESS procedure, PuraSinus was applied to the surgical wound in a thin and even layer as close as possible to the bleeding point. A similar application technique has been outlined previously (M. Lee et al., Int. J. Surg. Case Rep. 41: 461-4 (2017)). […] Tissues treated with the hydrogel were visible via endoscope given the gel's transparency.
Outcomes and objectives—The objectives of this study were to evaluate the effectiveness of PuraSinus in rapidly achieving intraoperative hemostasis and to assess the incidence of delayed bleeding ([…]) and synechiae formation via endoscopic observation of the nasal mucosa at follow-up visits. Primary bleeding was defined as bleeding occurring within 24 hours of surgery.
Data analysis—Statistical analysis was performed using descriptive statistics for continuous variables and patient demographics were reported. The rate of successful hemostasis and incidence of synechiae formation were calculated as a proportion of total patients undergoing FESS.

SMILES: CC(=O)N[C@@H](CCCNC(=N)N)C(=O)N[C@@H](C)C(=O)N[C@@H](CC(=O)O)C(=O)N[C@@H](C)C(=O)N[C@@H](CCCNC(=N)N)C(=O)N[C@@H](C)C(=O)N[C@@H](CC(=O)O)C(=O)N[C@@H](C)C(=O)N[C@@H](CCCNC(=N)N)C(=O)N[C@@H](C)C(=O)N[C@@H](CC(=O)O)C(=O)N[C@@H](C)C(=O)N[C@@H](CCCNC(=N)N)C(=O)N[C@@H](C)C(=O)N[C@@H](CC(=O)O)C(=O)N[C@@H](C)C(N)=O [PuraSinus, Ac-RADARADARADARADA-NH2]
- Blood transfusion required (human, in vivo): None of the patients in this study required a blood transfusion
- Secondary bleed, patients (more than 24 hours after surgery, n of 94): 3
- Secondary bleed, rate (more than 24 hours after surgery, of 94 patients): 3.2%
- Intervention required for bleeding, patients (n of 94): 4
- Intervention required, primary bleed, patients (n of 94): 3
- Intervention required, secondary bleed, patients (n of 94): 1
- Bleed (postoperative), patients (n of 94 patients): 6
- Hemostatic effectiveness, patients (no bleeding or no intervention required, n of 94): 90
- Hemostatic effectiveness, rate (no bleeding or no intervention required, of 94 patients): 95.7%
- Type of intervention: Cautery + Surgiflo, patients (of 4 interventions): 1
- Type of intervention: Cautery + additional PuraSinus, patients (of 4 interventions): 1
- Type of intervention: Cautery alone, patients (of 4 interventions): 1
- Type of intervention: Packing, patients (of 4 interventions): 1
- Bleeding patients on anticoagulation/antiplatelets post-op (of 6 bleeds): 1
- Bleeding patients with suspected or confirmed coagulopathy (of 6 bleeds): 2
- Patients with postoperative bleeding: Complete FESS (of 6 bleeds): 1
- Patients with postoperative bleeding: Female (of 6 bleeds): 5
- Patients with postoperative bleeding: Limited FESS (of 6 bleeds): 5
- Patients with postoperative bleeding: Male (of 6 bleeds): 1
- Bleed (postoperative), rate (of 94 patients): 6.4%
- Intervention required for bleeding, rate (of 94 patients): 4.3% and 4.2%
- Intervention required, primary bleed, rate (of 94 patients): 3.2%
- Intervention required, secondary bleed, rate (of 94 patients): 1.1%
- Re-bleeds in patients with primary or secondary bleeds (result in words): no re-bleeds recorded
- Hemostasis in the absence of other hemostatic agents and devices (result in words, most patients): effective hemostasis
- Primary bleed, patients (within 24 hours of surgery, n of 94): 3
- Primary bleed, rate (within 24 hours of surgery, of 94 patients): 3.2%
